Assay results as given in US8119116B2, “Therapeutics for cancer using 3-bromopyruvate and other selective inhibitors of ATP production” (John Hopkins University School of Medicine, priority 2001, dated 2012).

Experiments:
[1] = tested on: liver implanted VX2 tumors; assay: Systemic delivery via marginal ear vein, effect on liver implanted VX2 tumors; assay type: in vivo, rabbit; conditions: 25 ml, 0.5 mM via a marginal ear vein
Experimental: Normal tissues and tumors were fixed in 10% formalin, sliced at […] intervals for gross examination, and then embedded completely in paraffin after which […] sections were stained with hemotoxylin and eosin. Tumor viability was estimated by visual inspection and expressed as a percentage of viable tumor area for each slice. The overall percentage of viable tumor in each rabbit was calculated.
Finally, it was important to examine the effect of 3-BrPA when delivered systemically (i.e., via the general circulation) on both animal toxicity and its capacity to damage liver implanted tumors.

[2] = tested on: liver implanted VX2 tumors; assay: Direct intraarterial injection into liver implanted VX2 tumors, tumor histology; assay type: in vivo, rabbit; conditions: single intraarterial injection
From the text: The rabbit VX2 tumor was selected for implantation in the liver because of the similarities of its blood supply to that of human hepatomas. Other attributes of this tumor include rapid tumor growth, development of a sizable tumor that can be readily identified by x-ray imaging (fluoroscopy), and a biochemical phenotype characteristic of advanced stage tumors, i.e., high glycolysis and elevated levels of mitochondrial bound hexokinase. In addition, the rabbit is large enough that selective manipulation of catheters in the hepatic artery from the common femoral artery for delivery of agents is possible. Adult New Zealand white rabbits (32 total, Robinson Services, Inc.) weighing 3.5-4.2 kg were used. Studies with these animals were approved by the Johns Hopkins University Animal Care and Use Committee and carried out according to their guidelines. For successful implantation of the VX2 tumor into the liver, it was first grown for 2 weeks on the hind leg of a carrier rabbit. Each carrier rabbit was used to supply tumor cells for implantation into the left lobe of the liver of 2 separate rabbits. All animals, carriers and recipients, were anesthetized with a mixture of acepromazine (2.5 mg/kg) and ketamine hydrochloride (44 mg/kg) administered intramuscularly. Intravenous access was gained via a marginal ear vein and sodium pentothal was given intravenously to maintain anesthesia. The VX2 tumor was then excised from the carrier rabbit and placed in Hanks solution. Chunks of the tumor were minced in the same solution. Then, the abdomens of the recipient rabbits were shaved and prepped with betadine after which a midline subxyphoid incision was made. The anterior surface of the liver was exposed and tumor cells (0.1-0.2 ml) from the minced donor tumor were directly implanted onto the left lobe of the liver using the outer cannula of a 21-gauge angiocatheter. This method allows the growth of a single solitary, well-demarcated tumor in the liver of each recipient rabbit. The abdomen was closed in 2 layers. Proper aseptic technique was rigorously observed during each implantation. After surgery, animals were returned to their cages, kept warm with blankets, and monitored in the animal laboratory under the direct supervision of a physician or a technician until they recovered from anesthesia. […] The tumors were allowed to grow for another 14 days at which time they reached an ellipsoidal shape with dimension of approximately 1.5×1.8×2.5 cm. […]
Administration of anesthesia, intravenous access and sodium pentothal anesthesia were carried out as described in Example 12. […] The tumor could readily be visualized as a region of hypervascular blush located on the left side of the liver near the gastric fundus. […]

[3] = tested on: hexokinase bound to the mitochondrial fraction of the VX2 tumor; assay: Hexokinase activity of the VX2 tumor mitochondrial fraction; assay type: biochemical, rabbit; conditions: 5 mM, VX2 tumor mitochondria
Experimental: The freshly isolated liver or VX2 tumor tissues (15-20 g wet weight) was rinsed in 3 volumes of H-medium (210 mM D-mannitol, 70 mM sucrose, 2 mM Hepes, and 0.05% bovine albumin, pH 7.4) at 4° C. and minced with a razor blade as finely as possible. A 30% (V/V) suspension was made using ice-cold H-medium in a Potter-Elvehjem glass homogenizer (55 ml capacity), and homogenization was achieved by applying 4 complete up and down strokes through the suspension with a rotating (˜400 rpm), serrated, teflon pestle attached to a motor. To remove cell debris and nuclei, the resultant homogenate was diluted to twice the initial volume and centrifuged at 630×g for 8 minutes at 4° C. in a Sorvall RC-2B centrifuge using a GSA rotor. The supernatant was removed and then centrifuged at 6,800 g for 15 min under the same conditions. The resultant supernatant was saved and referred to here as the cytosolic faction. The pellet was resuspended in the initial volume of H-medium and centrifuged twice at 9,800×g for 15 min at 4° C. The washed pellet represents the mitochondrial fraction.
The assay coupled the glucose-6-phosphate formed in the hexokinase reaction to the glucose-6-phosphate dehydrogenase reaction. Here, NADP+, oxidizes glucose-6-phosphate to a g-lactone while becoming reduced to NADPH, thus allowing the formation of the latter to be monitored spectrophotometrically at 340 nm. […]

O=C(O)C(=O)CBr [3BrPA, 3-bromopyruvic acid]
killing effect on liver implanted VX2 tumors [1]: no killing effect
maximal number of non-viable cells observed in any one experiment [2]: 90%
total non-viable cells in the tumor ([2]; 25 ml 0.5 mM, 4 days): 84±5%
viable cells in the tumor ([2]; 25 ml 0.5 mM, 4 days): 16±5%
necrosis in tumor sections outside the central core region ([2]; 4 days): ~100%
inhibition of the hexokinase reaction [3]: inhibits completely
